Assay results: ChEMBL document CHEMBL3785086, “Design and synthesis of natural product derivatives with selective and improved cytotoxicity based on a sesquiterpene scaffold” (Bioorg Med Chem Lett, 2016)

Tests used:
MCF7 = test: Cytotoxicity against human MCF7 cells assessed as cell proliferation after 24 hrs by CCK-8 assay; assay type: functional, cell-based; settings: MCF7, 24 h
HeLa = test: Cytotoxicity against human HeLa cells assessed as cell proliferation after 24 hrs by CCK-8 assay; assay type: functional, cell-based
[1] = Cytotoxicity against human HO8910 cells assessed as cell proliferation after 24 hrs by CCK-8 assay; assay type: functional, cell-based; settings: HO-8910, 24 h
A549 = test: Cytotoxicity against human A549 cells assessed as cell proliferation after 24 hrs by CCK-8 assay; assay type: functional, cell-based; settings: A549, 24 h
[2] = Cytotoxicity against human T24 cells assessed as cell proliferation after 24 hrs by CCK-8 assay; assay type: functional, cell-based; settings: T-24, 24 h
[3] = Cytotoxicity against human BGC823 cells assessed as cell proliferation after 24 hrs by CCK-8 assay; assay type: functional, cell-based; settings: BGC-823, 24 h
[4] = Cytotoxicity against mouse NIH/3T3 cells assessed as cell proliferation after 24 hrs by CCK-8 assay; assay type: cell-based; settings: NIH3T3, 24 h

| SMILES | IC50 (MCF7) [µM] | IC50 (HeLa) [µM] | IC50 [1] [µM] | IC50 (A549) [µM] | IC50 [2] [µM] | IC50 [3] [µM] | IC50 [4] [µM] |
| --- | --- | --- | --- | --- | --- | --- | --- |
| C=C1CCC(c2coc(/C=C(\C)C(N)=O)c2)CC1 | 8.47 | 5.01 | 18 | > 50 | > 50 | > 50 | > 50 |
| C/C(=C\c1cc(-c2ccc3c(c2)OCO3)cs1)C(N)=O | 3.05 | > 50 | > 50 | > 50 | > 50 | > 50 | > 50 |
| C/C(=C\c1ccc(-c2ccc(F)cc2)o1)C(N)=O | 0.97 | 2.03 | 0.99 | 1.65 | 3.32 | 0.94 | 0.96 |
| C/C(=C\c1ccc(-c2ccc(C)cc2)o1)C(N)=O | > 50 | 4.59 | 1.66 | > 50 | > 50 | > 50 | > 50 |
| C/C(=C\c1cc(C2=CCCCC2)co1)C(N)=O | 6.58 | > 50 | > 50 | > 50 | > 50 | > 50 | > 50 |
| C/C(=C\c1cc(-c2ccc(Cl)cc2)cs1)C(N)=O | 17.1 | > 50 | > 50 | > 50 | > 50 | > 50 | > 50 |
| C/C(=C\c1nc(-c2ccc(F)cc2)cs1)C(N)=O | 3.3 | 5.4 | 4.45 | 13.2 | > 50 | > 50 | > 50 |
| C/C(=C\c1cc(-c2ccc(S(C)(=O)=O)cc2)cs1)C(N)=O | > 50 | > 50 | > 50 | > 50 | > 50 | > 50 | > 50 |
| C/C(=C\c1cc(-c2ccccc2)co1)C(N)=O | 3.34 | 3.28 | 42.4 | > 50 | > 50 | > 50 | > 50 |
| C/C(=C\c1cc(-c2ccc(C)cc2)cs1)C(N)=O | > 50 | > 50 | > 50 | > 50 | > 50 | > 50 | > 50 |
| C/C(=C\c1cc(C2=CCCC2)co1)C(N)=O | 15 | 17.6 | > 50 | 16.6 | > 50 | > 50 | 49.3 |
| C/C(=C\c1cc(-c2ccccc2C)cs1)C(N)=O | 4.92 | 19.4 | 15.2 | > 50 | > 50 | > 50 | > 50 |
| C/C(=C\c1cc(-c2ccc(F)cc2)co1)C(N)=O | 2.21 | 11.8 | > 50 | 14.9 | > 50 | > 50 | > 50 |
| C/C(=C\c1cc(-c2ccccc2)cs1)C(N)=O | 2.68 | 12.7 | > 50 | > 50 | > 50 | > 50 | > 50 |
| C/C(=C\c1cc(-c2ccc(C)cc2)co1)C(N)=O | 1.63 | 12 | 24.2 | > 50 | > 50 | > 50 | > 50 |
| C/C(=C\c1cc(-c2ccc([N+](=O)[O-])cc2)cs1)C(N)=O | 1.21 | 2.9 | 2.38 | 3.5 | > 50 | > 50 | > 50 |
| C/C(=C\c1nc(-c2ccccc2)cs1)C(N)=O | 2.38 | 2.77 | 3.78 | > 50 | > 50 | > 50 | > 50 |
| C/C(=C\c1cc(-c2ccc(F)nc2)co1)C(N)=O | 14.1 | > 50 | 30 | > 50 | > 50 | > 50 | > 50 |
| C/C(=C\c1cccc(-c2ccc(C)cc2)c1)C(N)=O | 6.71 | 24.8 | 26.8 | 5.1 | 7.65 | > 50 | > 50 |
| C/C(=C\c1cc(-c2cccnc2)co1)C(N)=O | 13.2 | > 50 | 8.64 | 6.62 | > 50 | > 50 | > 50 |
| COc1ccc(-c2csc(/C=C(\C)C(N)=O)c2)cc1 | > 50 | > 50 | > 50 | > 50 | > 50 | > 50 | > 50 |
| C/C(=C\c1nc(-c2ccc(C)cc2)cs1)C(N)=O | > 50 | 25 | > 50 | > 50 | > 50 | > 50 | > 50 |
| C/C(=C\c1cc(-c2ccc(C)nc2)co1)C(N)=O | 10.2 | > 50 | > 50 | > 50 | > 50 | > 50 | > 50 |
| C/C(=C\c1cccc(-c2ccccc2)c1)C(N)=O | 6.54 | 15.7 | 12.6 | > 50 | > 50 | > 50 | > 50 |
| C/C(=C\c1cc(-c2ccc(C(F)(F)F)cc2)cs1)C(N)=O | 50 | > 50 | > 50 | > 50 | > 50 | > 50 | > 50 |
| C/C(=C\c1cc(-c2ccc(F)cc2)cs1)C(N)=O | 1.44 | 20.8 | > 50 | > 50 | > 50 | > 50 | > 50 |
| C=Cc1ccc(-c2csc(/C=C(\C)C(N)=O)c2)cc1 | > 50 | > 50 | > 50 | > 50 | > 50 | > 50 | > 50 |
| C/C(=C\c1cc(-c2ccc(C#N)cc2)cs1)C(N)=O | 0.24 | 0.25 | 0.13 | > 50 | > 50 | > 50 | > 50 |
